In US20240408169A1 (priority 2023, published 2024):
Like-named read-outs stand apart in the source and are kept apart here. *1 amine or outer side, *2 acyl side, *3 side chain or, on linkers, in order; H or OH if unused. Where a SMILES comes first, the peptide text is derived from it. Bridges are numbered along the chain shown (N, C = ends). [ ]: non-standard residue; d: D form. The star is where a group is joined. X10 = CC(C)C(=O)N1[C@H]2COC[C@@H]1C=C(c1ccc(Cl)cc1C[C@@H](C(=O)[*:2])N(C)[*:1])C2; NMePhe(2-(4-MorPh),5-Cl) = CN[C@@H](Cc1cc(Cl)ccc1-c1ccc(N2CCOCC2)cc1)C(=O)O; X114 = CN([C@@H](Cc1cc(Cl)ccc1-c1ccc(OCCN2CCOCC2)cc1)C(=O)[*:2])[*:1]; X80 = CN1CC=C(c2ccc(-c3ccc(Cl)cc3C[C@@H](C(=O)[*:2])N(C)[*:1])cc2)CC1; X8 = CN1CCN(C2CC=C(c3ccc(Cl)cc3C[C@@H](C(=O)[*:2])N(C)[*:1])CC2)CC1; X91 = COc1cc(-c2ccc(Cl)cc2C[C@@H](C(=O)[*:2])N(C)[*:1])ccc1N1CCOCC1; X69 = CCOC(=O)N1CC=C(c2ccc(Cl)cc2C[C@@H](C(=O)[*:2])N(C)[*:1])CC1; X105 = CN([C@@H](Cc1cc(Cl)ccc1-c1cnn(C2CCOC2)c1)C(=O)[*:2])[*:1]; X113 = Cc1cc(-c2ccc(Cl)cc2C[C@@H](C(=O)[*:2])N(C)[*:1])n(C)n1; NMe3Pal(2-OiBu,5-Cl) = CN[C@@H](Cc1cc(Cl)cnc1OCC(C)C)C(=O)O; NMehhhLys(Me) = CN([C@@H](CCCCCCCN(C)[*:3])C(=O)[*:2])[*:1]; X2 = CN([C@@H](Cc1cc(Cl)ccc1-c1ccc2ncnn2c1)C(=O)[*:2])[*:1]; X44 = Cc1nnc(-c2ccc(Cl)cc2C[C@@H](C(=O)[*:2])N(C)[*:1])o1; NMe(hhhLys) = CN([C@@H](CCCCCCCN[*:3])C(=O)[*:2])[*:1]; X33 = CN([C@@H](Cc1cc(Cl)cc2c1OCCO2)C(=O)[*:2])[*:1]; Cyclobutanecarbonyl(1-CF3) = O=C(C1(C(F)(F)F)CCC1)*; X88 = CC(C)c1ccc(Cl)cc1C[C@@H](C(=O)[*:2])N(C)[*:1]; cBuCO(3,3-F2-1-CF3) = O=C(C1(C(F)(F)F)CC(F)(F)C1)*; Pro(trans-4-F) = O=C(O)[C@@H]1C[C@@H](F)CN1; Gly(cPr) = N[C@H](C(=O)O)C1CC1; X9 = C[C@@]1(C(=O)*)CC1(F)F

Experiments:
CyclinA2/CDK2 = target: T1, CyclinA2/CDK2 (Homo sapiens, UniProt P20248); experiment: Fluorescence Polarization (FP) competitive binding assay, Cyclin A2/Cdk2;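 also: plates equilibrated two hours at room temperature before polarization reading, IC50 fitted from eight-concentration compound titration curves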
T1 construct: purchased CRELUX Protein Services

CyclinB1/CDK1 = target: T2, CyclinB1/CDK1 (Homo sapiens, UniProt P14635); experiment: Fluorescence Polarization (FP) competitive binding assay, Cyclin B1/Cdk1;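 also: fluorescence polarization read after equilibration at room temperature, with IC50 taken from serially diluted dose-response curves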
T2 construct: purchased Eurofins, discovery 14-450

CyclinE1/CDK2 = target: T3, CyclinE1/CDK2 (Homo sapiens, UniProt P24864); experiment: Fluorescence Polarization (FP) competitive binding assay, Cyclin E1/Cdk2;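 also: readings taken after two-hour equilibration at room temperature in HEPES buffer with NaCl, DTT, NP-40 and BSA, IC50 fitted from eight-concentration serial dilution series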
T3 construct: purchased Eurofins, discovery 14-475

WI-38 cells = experiment: MTT proliferation assay, WI-38; type: cell-based; conditions: 3 days compound exposure, 1:3 serial dilution starting at 10 μM;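 also: Eight- or ten-point dilution series, with exposure length chosen to span about three to four cell doublings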
NCI-H1048 cells = experiment: MTT proliferation assay, NCI-H1048; type: cell-based; conditions: 5 days compound exposure, 1:3 serial dilution starting at 10 μM;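 also: Dose-response in 96-well plates over 8 or 10 concentration points, with exposure spanning 3-4 cell doublings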
OVCAR3 cells = experiment: MTT proliferation assay, OVCAR3; type: cell-based; conditions: 5 days compound exposure, 1:3 serial dilution starting at 10 μM;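 also: compound given as an 8- or 10-point series, one day after plating, with exposure covering roughly 3-4 cell doublings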
[1] = 8 nM Cyclin A2/Cdk2, 2 nM FAM probe, average of 2-3 independent experiments, read-out: Cyclin A FP IC50
[2] = 10 nM Cyclin B1/Cdk1, 2 nM FAM probe; average of 2-3 independent experiments; read-out: Cyclin B FP IC50
[3] = 10 nM Cyclin E1/Cdk2, 2 nM FAM probe, average of 2-3 independent experiments, read-out: Cyclin E FP IC50
[4] = read-out: Cyclin B FP IC50; 10 nM Cyclin B1/Cdk1, 2 nM FAM probe; average of 2-3 independent experiments

Row | Compound | IC50 (CyclinA2/CDK2; [1]) [nM] | IC50 (CyclinB1/CDK1; [2]) [nM] | IC50 (CyclinE1/CDK2; [3]) [nM] | GI50 (WI-38 cells) [nM] | GI50 (NCI-H1048 cells) [nM] | GI50 (OVCAR3 cells) [nM] | IC50 (CyclinA2/CDK2) [nM] | IC50 (CyclinB1/CDK1; [4]) [nM] | IC50 (CyclinE1/CDK2) [nM]
1 | CCOC(=O)N1CC=C(c2ccc(Cl)cc2C[C@H]2C(=O)N(C)CCCCCCC[C@H](N(C)C(=O)[C@@H](NC(=O)[C@@H]3C[C@@H](F)CN3C(=O)C3(C(F)(F)F)CC(F)(F)C3)C3CC3)C(=O)N[C@@H](CC(C)C)C(=O)N2C)CC1 [Example 145] ({cBuCO(3,3-F2-1-CF3)}-[Pro(trans-4-F)][Gly(cPr)][NMehhhLys(Me)]L[X69]; lactam 3-C) | 20 | 20 | 1300 | 10100 | 70 | 80 | – | – | –
2 | Cc1nnc(-c2ccc(Cl)cc2C[C@H]2C(=O)N(C)CCCCC=CC[C@H](N(C)C(=O)[C@@H](NC(=O)[C@@H]3C[C@@H](F)CN3C(=O)C3(C(F)(F)F)CCC3)C3CC3)C(=O)N[C@@H](CC(C)C)C(=O)N2C)o1 [Example 115] | 40 | 20 | 170 | 11000 | 70 | 60 | – | – | –
3 | CC(C)C[C@@H]1NC(=O)[C@@H](N(C)C(=O)[C@@H](NC(=O)[C@@H]2C[C@@H](F)CN2C(=O)C2(C(F)(F)F)CC(F)(F)C2)C2CC2)CCCCCCCNC(=O)[C@H](Cc2cc(Cl)ccc2C2=C[C@H]3COC[C@@H](C2)N3C(=O)C(C)C)N(C)C1=O [Example 327] ({cBuCO(3,3-F2-1-CF3)}-[Pro(trans-4-F)][Gly(cPr)][NMe(hhhLys)]L[X10]; lactam 3-C) | 20 | 20 | 400 | 83900 | 10 | 10 | – | – | –
4 | CC(C)C[C@@H]1NC(=O)[C@@H](N(C)C(=O)[C@@H](NC(=O)[C@@H]2C[C@@H](F)CN2C(=O)C2(C(F)(F)F)CC(F)(F)C2)C2CC2)CC=CCCCCNC(=O)[C@H](Cc2cc(Cl)cnc2OC2CC2)N(C)C1=O [Example 129] | 210 | 20 | 820 | 6880 | 1460 | 2580 | – | – | –
5 | Cc1cc(-c2ccc(Cl)cc2C[C@H]2C(=O)N(C)CCCCCCC[C@H](N(C)C(=O)[C@@H](NC(=O)[C@@H]3C[C@@H](F)CN3C(=O)C3(C(F)(F)F)CC(F)(F)C3)C3CC3)C(=O)N[C@@H](CC(C)C)C(=O)N2C)n(C)n1 [Example 235] ({cBuCO(3,3-F2-1-CF3)}-[Pro(trans-4-F)][Gly(cPr)][NMehhhLys(Me)]L[X113]; lactam 3-C) | – | – | – | 13200 | 100 | 90 | 140 | 20 | 6080
6 | COc1cc(-c2ccc(Cl)cc2C[C@H]2C(=O)N(C)CCCCCCC[C@H](N(C)C(=O)[C@@H](NC(=O)[C@@H]3C[C@@H](F)CN3C(=O)C3(C(F)(F)F)CC(F)(F)C3)C3CC3)C(=O)N[C@@H](CC(C)C)C(=O)N2C)ccc1N1CCOCC1 [Example 367] ({cBuCO(3,3-F2-1-CF3)}-[Pro(trans-4-F)][Gly(cPr)][NMehhhLys(Me)]L[X91]; lactam 3-C) | 20 | 20 | 1100 | 14700 | 20 | 10 | – | – | –
7 | CC(C)C[C@@H]1NC(=O)[C@@H](N(C)C(=O)[C@@H](NC(=O)[C@@H]2C[C@@H](F)CN2C(=O)C2(C(F)(F)F)CC(F)(F)C2)C2CC2)CCCCCCCN(C)C(=O)[C@H](Cc2cc(Cl)ccc2-c2ccc3ncnn3c2)N(C)C1=O [Example 232] ({cBuCO(3,3-F2-1-CF3)}-[Pro(trans-4-F)][Gly(cPr)][NMehhhLys(Me)]L[X2]; lactam 3-C) | – | – | – | 11600 | 50 | 80 | 50 | 20 | 2870
8 | CC(=O)N1CC=C(c2ccc(Cl)cc2C[C@H]2C(=O)NCCC=CCCC[C@H](N(C)C(=O)[C@@H](NC(=O)[C@@H]3C[C@@H](F)CN3C(=O)C3(C(F)(F)F)CC(F)(F)C3)C3CC3)C(=O)N[C@@H](CC(C)C)C(=O)N2C)CC1 [Example 286] | 80 | 20 | 4020 | 6500 | 60 | 50 | – | – | –
9 | CC(=O)N1CC=C(c2ccc(Cl)cc2C[C@H]2C(=O)NCCCCC=CC[C@H](N(C)C(=O)[C@@H](NC(=O)[C@@H]3C[C@@H](F)CN3C(=O)C3(C(F)(F)F)CC(F)(F)C3)C3CC3)C(=O)N[C@@H](CC(C)C)C(=O)N2C)CC1 [Example 18] | 90 | 20 | 6190 | 9030 | 170 | 340 | – | – | –
10 | CC(C)C[C@@H]1NC(=O)[C@@H](N(C)C(=O)[C@@H](NC(=O)[C@@H]2C[C@@H](F)CN2C(=O)C2(C(F)(F)F)CC(F)(F)C2)C2CC2)CCCCCCCN(C)C(=O)[C@H](Cc2cc(Cl)ccc2-c2ccc(OCCN3CCOCC3)cc2)N(C)C1=O [Example 339] ({cBuCO(3,3-F2-1-CF3)}-[Pro(trans-4-F)][Gly(cPr)][NMehhhLys(Me)]L[X114]; lactam 3-C) | 20 | 20 | 400 | 5620 | 10 | 10 | – | – | –
11 | Cc1nnc(-c2ccc(Cl)cc2C[C@H]2C(=O)NCCCCCCC[C@H](N(C)C(=O)[C@@H](NC(=O)[C@@H]3C[C@@H](F)CN3C(=O)C3(C(F)(F)F)CC(F)(F)C3)C3CC3)C(=O)N[C@@H](CC(C)C)C(=O)N2C)o1 [Example 160] ({cBuCO(3,3-F2-1-CF3)}-[Pro(trans-4-F)][Gly(cPr)][NMe(hhhLys)]L[X44]; lactam 3-C) | 20 | 20 | 270 | 11500 | 20 | 20 | – | – | –
12 | CC(C)C[C@@H]1NC(=O)[C@@H](N(C)C(=O)[C@@H](NC(=O)[C@@H]2C[C@@H](F)CN2C(=O)C2(C(F)(F)F)CC(F)(F)C2)C2CC2)CCCCCCCNC(=O)[C@H](Cc2cc(Cl)cc3c2OCCO3)N(C)C1=O [Example 330] ({cBuCO(3,3-F2-1-CF3)}-[Pro(trans-4-F)][Gly(cPr)][NMe(hhhLys)]L[X33]; lactam 3-C) | 30 | 20 | 100 | 18500 | 10 | 10 | – | – | –
13 | CC(C)C[C@@H]1NC(=O)[C@@H](N(C)C(=O)[C@@H](NC(=O)[C@@H]2C[C@@H](F)CN2C(=O)[C@]2(C)CC2(F)F)C2CC2)CCCCCCCN(C)C(=O)[C@H](Cc2cc(Cl)ccc2-c2ccc(N3CCOCC3)cc2)N(C)C1=O [Example 399] (X9-[Pro(trans-4-F)][Gly(cPr)][NMehhhLys(Me)]L[NMePhe(2-(4-MorPh),5-Cl)]; lactam 3-C) | 70 | 20 | 3000 | 3650 | 220 | 110 | – | – | –
14 | CC(C)C[C@@H]1NC(=O)[C@@H](N(C)C(=O)[C@@H](NC(=O)[C@@H]2C[C@@H](F)CN2C(=O)C2(C(F)(F)F)CC(F)(F)C2)C2CC2)CCCCCCCN(C)C(=O)[C@H](Cc2cc(Cl)ccc2C2=CCC(N3CCN(C)CC3)CC2)N(C)C1=O (stereo partly drawn) [Example 376] ({cBuCO(3,3-F2-1-CF3)}-[Pro(trans-4-F)][Gly(cPr)][NMehhhLys(Me)]L[X8]; lactam 3-C) | 20 | 20 | 1330 | 3450 | 10 | 10 | – | – | –
15 | CC(C)C[C@@H]1NC(=O)[C@@H](N(C)C(=O)[C@@H](NC(=O)[C@@H]2C[C@@H](F)CN2C(=O)C2(C(F)(F)F)CC(F)(F)C2)C2CC2)CCCCCCCN(C)C(=O)[C@H](Cc2cc(Cl)ccc2-c2ccc(C3=CCN(C)CC3)cc2)N(C)C1=O [Example 351] ({cBuCO(3,3-F2-1-CF3)}-[Pro(trans-4-F)][Gly(cPr)][NMehhhLys(Me)]L[X80]; lactam 3-C) | 20 | 20 | 970 | 1780 | 10 | 10 | – | – | –
16 | CC(C)C[C@@H]1NC(=O)[C@@H](N(C)C(=O)[C@@H](NC(=O)[C@@H]2C[C@@H](F)CN2C(=O)C2(C(F)(F)F)CC(F)(F)C2)C2CC2)CCCCCCCN(C)C(=O)[C@H](Cc2cc(Cl)ccc2-c2cnn(C3CCOC3)c2)N(C)C1=O (stereo partly drawn) [Example 113] ({cBuCO(3,3-F2-1-CF3)}-[Pro(trans-4-F)][Gly(cPr)][NMehhhLys(Me)]L[X105]; lactam 3-C) | 20 | 20 | 310 | 7240 | 10 | 10 | – | – | –
17 | CC(C)C[C@@H]1NC(=O)[C@@H](N(C)C(=O)[C@@H](NC(=O)[C@@H]2C[C@@H](F)CN2C(=O)C2(C(F)(F)F)CC(F)(F)C2)C2CC2)CCCCCCCNC(=O)[C@H](Cc2cc(Cl)ccc2C(C)C)N(C)C1=O [Example 63] ({cBuCO(3,3-F2-1-CF3)}-[Pro(trans-4-F)][Gly(cPr)][NMe(hhhLys)]L[X88]; lactam 3-C) | 120 | 20 | 3510 | 3170 | 110 | 240 | – | – | –
18 | CC(C)COc1ncc(Cl)cc1C[C@H]1C(=O)N(C)CCCCCCC[C@H](N(C)C(=O)[C@@H](NC(=O)[C@@H]2C[C@@H](F)CN2C(=O)C2(C(F)(F)F)CCC2)C2CC2)C(=O)N[C@@H](CC(C)C)C(=O)N1C [Example 230] ({Cyclobutanecarbonyl(1-CF3)}-[Pro(trans-4-F)][Gly(cPr)][NMehhhLys(Me)]L[NMe3Pal(2-OiBu,5-Cl)]; lactam 3-C) | – | – | – | 5050 | 40 | 90 | 30 | 20 | 140
